Assay results from patent publication US20150299219A1, “BICYCLIC PYRAZOLONE COMPOUNDS AND METHODS OF USE” (Calitor Sciences, LLC, priority 2014, published 2015).

Experiments:
[1] = Compound stability in rat liver microsomes; format: in vitro ADME
Description: (§1) Human or rat liver microsomes incubations were conducted in duplicate in polypropylene tubes. The typical incubation mixtures consisted of human or rat liver microsomes (0.5 mg protein/mL), compounds of interest (5 μM) and NADPH (1.0 mM) in a total volume of 200 μL potassium phosphate buffer (PBS, 100 mM, pH 7.4). Compounds were dissolved in DMSO and diluted with PBS such that the final concentration of DMSO was 0.05%. The enzymatic reactions were commenced with the addition of protein after a 3-min preincubation and incubated in a water bath open to the air at 37° C. Reactions were terminated at various time points (0, 5, 10, 15, 30, 60 min) by adding equal volume of ice-cold acetonitrile. The samples were stored at −80° C. until LC/MS/MS assays.
(§2) The concentrations of compounds in the incubation mixtures of human or rat liver microsomes were determined by a LC/MS/MS method. The ranges of the linearity in the concentration range were determined for each tested compounds.
(§3) A parallel incubation was performed using denatured microsomes as the negative control, and reactions were terminated at various time points (0, 15, 60 min) after incubation at 37° C.
(§4) Dextromethorphan (70 μM) was selected as the positive control, and reactions were terminated at various time points (0, 5, 10, 15, 30, 60 min) after incubation at 37° C. Both positive and negative control samples were included in each assay to ensure the integrity of the microsomal incubation system.
(§5) Alternatively, the stability of some of the compounds disclosed herein in human (or rat) liver microsomes were also conducted in the following protocol. The incubations were conducted in duplicate in polypropylene tubes. The typical incubation mixtures consisted of liver microsomes (final concentration: 0.5 mg protein/mL), compounds (final concentration: 1.5 μM) in a total volume of 30 μL K-buffer (contain 1.0 mM EDTA, 100 mM, pH7.4). Compounds were dissolved in DMSO and diluted with K-buffer such that the final concentration of DMSO was 0.2%. The enzymatic reactions were commenced with the addition of 15 μL of NADPH (final concentration: 2 mM) after 10 min preincubation and incubated in a 37° C. incubator. Reactions were terminated at various time points (0, 15, 30, 60 min) by adding 135 μL acetonitrile (contain IS). Protein is removed by centrifugation with 4000 rpm, 10 min. Supernatant was collected for LCMS/MS analysis
(§6) In the above protocol, ketanserin (1 μM) was selected as the positive control, and reactions were terminated at various time points (0, 15, 30, 60 min) after incubation at 37° C. The positive control sample was included in each assay to ensure the integrity of the microsomal incubation system.
(§7) The concentrations of compounds in human or rat liver microsome incubations were plotted as a percentage of the relevant zero time point control for each reaction. The in vivo CLint were extrapolated (ref: Naritomi, Y.; Terashita, S.; Kimura, S.; Suzuki, A.; Kagayama, A.; and Sugiyama, Y.; Prediction of human hepatic clearance from in vivo animal experiments and in vitro metabolic studies with liver microsomes from animals and humans. Drug Metab. Dispos., 2001, 29: 1316-1324).

[2] = Pharmacokinetic profiles in rats; format: in vivo; details: rat, plasma
Description: The LC/MS/MS system used in the analysis consists of an Agilent 1200 Series vacuum degasser, binary pump, well-plate autosampler, thermostatted column compartment, the Agilent G6430 Triple Quadrupole Mass Spectrometer with an electrosprayionization (ESI) source. Quantitative analysis was carried out using MRM mode. The parameters for MRM transitions are in the Table A.
An Agilent XDB-C18, 2.1×30 mm, 3.5 μM column was used for the analysis. 5 μL of the samples were injected. Analysis condition: The mobile phase was 0.1% formic acid in water (A) and 0.1% formic acid in methanol (B). The flow rate was 0.4 mL/min. And the gradient of Mobile phase was in the Table B.
Alternatively, an Agilent 6330 series LC/MS/MS spectrometer equipped with G1312A binary pumps, a G1367A autosampler and a G1314C UV detector were used in the analysis. An ESI source was used on the LC/MS/MS spectrometer. The analysis was done in positive ion mode as appropriate and the MRM transition for each analyte was optimized using standard solution. A Capcell MP-C18 100×4.6 mm I.D., […] column (Phenomenex, Torrance, Calif., USA) was used during the analysis. The mobile phase was 5 mM ammonia acetate, 0.1% MeOH in water (A): 5 mM ammonia acetate, 0.1% MeOH in acetonitrile (B) (70/30, v/v). The flow rate was 0.6 mL/min. Column was maintained at ambient temperature. 20 μL of the samples were injected.
The compounds disclosed herein are assessed in pharmacokinetic studies in mice, rats, dogs or monkeys. The compounds are administered as a water solution, 2% HPMC+1% TWEEN®80 in water solution, 5% DMSO+5% solutol in saline, 4% MC suspension or capsule. For the intravenous administration, the animals are generally given at 1 or 2 mg/kg dose. For the oral (p.o.) dosing, mice and rats are generally given 5 or 10 mg/kg dose, and dogs and monkeys are generally given 10 mg/kg dose. The blood samples (0.3 mL) are drawn at 0.25, 0.5, 1.0, 2.0, 3.0, 4.0, 6.0, 8.0, 12 and 24 h time points or 0.083, 0.25, 0.5, 1.0, 2.0, 4.0, 6.0, 8.0 and 24 h time points and centrifuged at 3,000 or 4000 rpm for 2 to 10 min. The plasma solutions are collected, and stored at −20° C. or −70° C. until analyzed by LC/MS/MS as described above.

[3] = Compound stability in human liver microsomes; format: in vitro ADME
Description: as §1, §2, §3, §4, §5, §6, §7

[4] = pH 7.4, 0.5 mg protein/mL, NADPH, 37° C.
[5] = pH 7.4, in vivo CLint extrapolated

Nc1cc(Oc2ccc(NC(=O)c3c4n(n(-c5ccccc5)c3=O)CCC4)cc2)ccn1 [Ex. 1, N-(4-((2-aminopyridin-4-yl)oxy)phenyl)-2-oxo-1-phenyl-2,4,5,6-tetrahydro-1H-pyrrolo[1,2-b]pyrazole-3-carboxamide]
half-life [1, 4]: 88.9 min
CLint scaled [1, 5]: 27.9 mL/min/kg
AUC(0-t) ([2]; iv dosing, 1 mg/kg): 1190 ng·h/mL
half-life ([2]; iv dosing, 1 mg/kg): 90.6 min
Vd ([2]; iv dosing, 1 mg/kg, read-out: Vss): 1.2 L/kg
bioavailability ([2]; po, bioavailability (F)): 163%
half-life [3, 4]: 188 min
CLint scaled [3, 5]: 9.27 mL/min/kg
